This note sets out measurements from ChEMBL document CHEMBL1141090, “Rational design, synthesis, and characterization of novel inhibitors for human beta1,4-galactosyltransferase” (J Med Chem, 2005).

The target in assay [1] is T1, Beta-1,4-galactosyltransferase 1 (Homo sapiens, UniProt P15291).
T1 sequence (P15291 whole entry): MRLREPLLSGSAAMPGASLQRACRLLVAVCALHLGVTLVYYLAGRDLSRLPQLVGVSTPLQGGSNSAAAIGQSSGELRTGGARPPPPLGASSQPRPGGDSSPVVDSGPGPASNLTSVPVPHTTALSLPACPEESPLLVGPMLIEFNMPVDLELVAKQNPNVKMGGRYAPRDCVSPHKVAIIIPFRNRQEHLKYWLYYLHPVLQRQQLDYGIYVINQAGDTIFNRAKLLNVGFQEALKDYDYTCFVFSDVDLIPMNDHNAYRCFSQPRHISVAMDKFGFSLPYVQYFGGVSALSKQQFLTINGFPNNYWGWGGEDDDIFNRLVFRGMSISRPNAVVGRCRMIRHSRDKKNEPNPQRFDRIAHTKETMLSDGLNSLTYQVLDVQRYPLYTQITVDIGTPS
Kind of assay: Inhibitory constant against human Beta-1,4-galactosyltransferase I; N.I. is inactive.

The target of assay [2] is T1, Beta-1,4-galactosyltransferase 1. Kind of assay: Inhibitory constant against human recombinant Beta-1,4-galactosyltransferase I; N.I. is inactive.

For the molecule `O=c1ccn([C@@H]2O[C@H](COP(=O)(O)OP(=O)(O)O[C@H]3O[C@@H](CNCCCCCCOCc4ccc5ccccc5c4)[C@H](O)[C@H](O)[C@@H]3O)[C@@H](O)[C@H]2O)c(=O)[nH]1`, the Ki result in assay [1] is “Not Active”.

For the molecule `O=c1ccn([C@@H]2O[C@H](COP(=O)(O)OP(=O)(O)O[C@H]3O[C@@H](CNCc4cccc5ccccc45)[C@H](O)[C@H](O)[C@@H]3O)[C@@H](O)[C@H]2O)c(=O)[nH]1`, the Ki entry in assay [2] is listed as “Not Active”.
